From US11970474B2, “Substituted benzodiazoles and use thereof in therapy” (THOMAS HELLEDAYS STIFTELSE FÖR MEDICINSK FORSKNING, priority 2018, dated 2024) come the findings set out here.

OGG1, sequence (O15527 whole entry): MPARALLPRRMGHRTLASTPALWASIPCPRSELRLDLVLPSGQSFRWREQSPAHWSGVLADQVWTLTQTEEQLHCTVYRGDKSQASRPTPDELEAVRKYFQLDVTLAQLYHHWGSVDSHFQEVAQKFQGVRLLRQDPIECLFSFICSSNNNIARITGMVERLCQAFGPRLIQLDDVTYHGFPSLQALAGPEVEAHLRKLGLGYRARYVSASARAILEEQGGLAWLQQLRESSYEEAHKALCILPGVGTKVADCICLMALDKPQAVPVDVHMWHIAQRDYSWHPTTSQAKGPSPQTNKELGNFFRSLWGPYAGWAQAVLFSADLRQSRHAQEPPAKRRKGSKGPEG

This assay addresses OGG1 (Homo sapiens (Human), UniProt O15527). In words: In vitro OGG1 activity assay. The format is biochemical. The following applies: 800 pM OGG1 enzyme, 2 nM human APEX1, 10 nM 8-oxoA:C substrate. The procedure, abridged:
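Fluorescence-release assay on a duplex oligonucleotide carrying an OGG1 substrate base beside a fluorophore, quenched from the complementary strand. Excess APEX1 cleaves the abasic site left by base excision, melting the duplex and unquenching the fluorophore. Compounds in DMSO were dispensed before enzyme and substrate, and fluorescein signal was read.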
The compound `COc1ccc(NC(=O)N2CCC(n3c(=O)[nH]c4c(Br)cccc43)C(O)C2)cc1Cl` (centres unmarked) [Example 177, 4-(4-Bromo-2-oxo-2,3-dihydro-1H-1,3-benzodiazol-1-yl)-N-(3-chloro-4-methoxyphenyl)-3-hydroxypiperidine-1-carboxamide] showed a 50% inhibitory concentration (IC50) of 5020 nM.

`COc1cc(NC(=O)[C@H]2CC[C@@H](n3c(=O)[nH]c4c(NC(=O)c5ccnn5C)cccc43)CC2)ccc1C` [Example 321, 1-Methyl-N-{2-oxo-1-[cis-4-[(3-methoxy-4-methylphenyl)carbamoyl]cyclohexyl]-2,3-dihydro-1H-1,3-benzodiazol-4-yl}-1H-pyrazole-5-carboxamide] came in with an IC50 of 5.75 nM.

In turn, `O=c1[nH]c2c(Br)cccc2n1[C@H]1CC[C@@H](C(=O)Nc2cccc(C(F)(F)F)c2)CC1` [Example 141, (Cis)-4-(4-bromo-2-oxo-2,3-dihydro-1H-1,3-benzodiazol-1-yl)-N-[3-(trifluoromethyl)phenyl]cyclohexane-1-carboxamide] came in with an IC50 of 5480 nM.

Take `N#Cc1ccc(NC(=O)[C@H]2CC[C@@H](n3c(=O)[nH]c4c(Br)cccc43)CC2)cc1Cl` [Example 125, (Cis)-4-(4-bromo-2-oxo-2,3-dihydro-1H-1,3-benzodiazol-1-yl)-N-(3-chloro-4-cyanophenyl)cyclohexane-1-carboxamide]: the IC50 came out at 3620 nM.

`COc1ccc(NC(=O)[C@H]2CC[C@@H](n3c(=O)[nH]c4ccc(F)cc43)CC2)cc1` [Example 216, Cis-4-(6-fluoro-2-oxo-2,3-dihydro-1H-1,3-benzodiazol-1-yl)-N-(4-methoxyphenyl)cyclohexane-1-carboxamide] yielded an IC50 of 8130 nM.

On to `COc1cc(NC(=O)[C@H]2CC[C@@H](n3c(=O)[nH]c4c(C(=O)N(C)C)cccc43)CC2)ccc1C` [Example 260, N,N-Dimethyl-2-oxo-1-[cis-4-[(3-methoxy-4-methylphenyl)carbamoyl]cyclohexyl]-2,3-dihydro-1H-1,3-benzodiazole-4-carboxamide], for which half-maximal inhibition (IC50) required 343 nM.

Regarding `Cc1cc(NC(=O)N2CCC(n3c(=O)[nH]c4c(-c5ccc(CO)nc5)cccc43)CC2)ccc1I` [Example 81, 4-{4-[6-(Hydroxymethyl)pyridin-3-yl]-2-oxo-2,3-dihydro-1H-1,3-benzodiazol-1-yl}-N-(4-iodo-3-methylphenyl)piperidine-1-carboxamide], the midpoint of inhibition, the IC50, lay at 408 nM.

Compound `COc1ccc(NC(=O)[C@H]2CC[C@@H](n3c(=O)[nH]c4c(F)cccc43)CC2)cc1F` [Example 213, Cis-4-(4-fluoro-2-oxo-2,3-dihydro-1H-1,3-benzodiazol-1-yl)-N-(3-fluoro-4-methoxyphenyl)cyclohexane-1-carboxamide] yielded an IC50 of 155 nM.

`Cc1cc(NC(=O)[C@H]2CC[C@@H](n3c(=O)[nH]c4ccc(F)cc43)CC2)ccc1O` [Example 220, Cis-4-(6-fluoro-2-oxo-2,3-dihydro-1H-1,3-benzodiazol-1-yl)-N-(4-hydroxy-3-methylphenyl)cyclohexane-1-carboxamide] returned a concentration for half-maximal inhibition (IC50) of 8630 nM.

`COc1ccc(NC(=O)[C@H]2CC[C@@H](n3c(=O)[nH]c4c(OC)cccc43)CC2)cc1F` [Example 207, Cis-N-(3-fluoro-4-methoxyphenyl)-4-(4-methoxy-2-oxo-2,3-dihydro-1H-1,3-benzodiazol-1-yl)cyclohexane-1-carboxamide] displayed a half-maximal inhibitory concentration (IC50) of 73.6 nM.

Turning to `CN(C)CCOc1ccc(-c2cccc3c2[nH]c(=O)n3C2CCN(C(=O)Nc3ccc(Cl)c(Cl)c3)CC2)cc1` [Example 36, N-(3,4-dichlorophenyl)-4-(4-{4-[2-(dimethylamino)ethoxy]phenyl}-2-oxo-2,3-dihydro-1H-1,3-benzodiazol-1-yl)piperidine-1-carboxamide], 3650 nM corresponded to half-maximal inhibition (IC50).

The compound `Cc1cccc(NC(=O)[C@H]2CC[C@@H](n3c(=O)[nH]c4c(Br)cccc43)CC2)c1C` [Example 167, (Cis)-4-(4-bromo-2-oxo-2,3-dihydro-1H-1,3-benzodiazol-1-yl)-N-(2,3-dimethylphenyl)cyclohexane-1-carboxamide] gave an IC50 of 3890 nM.

The compound `COc1cc(NC(=O)[C@H]2CC[C@@H](n3c(=O)[nH]c4c(C(=O)N5CCNCC5)cccc43)CC2)ccc1C` [Example 261, Cis-N-(3-methoxy-4-methylphenyl)-4-[2-oxo-4-(piperazine-1-carbonyl)-2,3-dihydro-1H-1,3-benzodiazol-1-yl]cyclohexane-1-carboxamide] came in with a half-inhibitory concentration (IC50) of 68.3 nM.

`O=C(NCC(O)CO)c1cnn(-c2cccc3c2[nH]c(=O)n3C2CCN(C(=O)Nc3ccc(I)cc3)CC2)c1` (centres unmarked) [Example 90, 4-(4-{4-[(2,3-Dihydroxypropyl)carbamoyl]-1H-pyrazol-1-yl}-2-oxo-2,3-dihydro-1H-1,3-benzodiazol-1-yl)-N-(4-iodophenyl)piperidine-1-carboxamide] returned an IC50 of 218 nM.

`Cc1cc(N)c(NC(=O)[C@H]2CC[C@@H](n3c(=O)[nH]c4c(Br)cccc43)CC2)cc1C` [Example 223, Cis-N-(2-amino-4,5-dimethylphenyl)-4-(4-bromo-2-oxo-2,3-dihydro-1H-1,3-benzodiazol-1-yl)cyclohexane-1-carboxamide] registered an IC50 of 1670 nM.

Compound `NCc1ccc(-c2cccc3c2[nH]c(=O)n3C2CCN(C(=O)Nc3ccc(Cl)c(Cl)c3)CC2)cc1` [Example 33, 4-{4-[4-(Aminomethyl)phenyl]-2-oxo-2,3-dihydro-1H-1,3-benzodiazol-1-yl}-N-(3,4-dichlorophenyl)piperidine-1-carboxamide] displayed an IC50 of 2530 nM.

`Nc1cccc(-c2cccc3c2[nH]c(=O)n3C2CCN(C(=O)Nc3ccc(Cl)c(Cl)c3)CC2)c1` [Example 29, 4-[4-(3-Aminophenyl)-2-oxo-2,3-dihydro-1H-1,3-benzodiazol-1-yl]-N-(3,4-dichlorophenyl)piperidine-1-carboxamide] came in with an IC50 of 2060 nM.

For the compound `COc1ccc(NC(=O)[C@H]2CC[C@@H](n3c(=O)[nH]c4c(F)cccc43)CC2)cc1` [Example 211, Cis-4-(4-fluoro-2-oxo-2,3-dihydro-1H-1,3-benzodiazol-1-yl)-N-(4-methoxyphenyl)cyclohexane-1-carboxamide], the IC50 worked out at 153 nM.

`Cc1nc2ccc(NC(=O)[C@H]3CC[C@@H](n4c(=O)[nH]c5c(Br)cccc54)CC3)cc2o1` [Example 203, Cis-4-(4-bromo-2-oxo-2,3-dihydro-1H-1,3-benzodiazol-1-yl)-N-(2-methyl-1,3-benzoxazol-6-yl)cyclohexane-1-carboxamide] showed an IC50 of 6270 nM.

For the compound `COc1cc(NC(=O)[C@H]2CC[C@@H](n3c(=O)[nH]c4c(C(=O)NCC5CCCN5)cccc43)CC2)ccc1C` (stereo partly drawn) [Example 254, 2-Oxo-N-[(pyrrolidin-2-yl)methyl]-1-[cis-4-[(3-methoxy-4-methylphenyl)carbamoyl]cyclohexyl]-2,3-dihydro-1H-1,3-benzodiazole-4-carboxamide], the midpoint of inhibition, the IC50, lay at 0.21 nM.

As to `Cc1cccc2c1[nH]c(=O)n2C1CCN(C(=O)Nc2ccc(I)cc2)CC1` [Example 4, N-(4-iodophenyl)-4-(4-methyl-2-oxo-2,3-dihydro-1H-1,3-benzodiazol-1-yl)piperidine-1-carboxamide], half-maximal inhibition (IC50) was put at 660 nM.

For `COc1cc(NC(=O)[C@H]2CC[C@@H](n3c(=O)[nH]c4c(C(=O)NCCNC(C)=O)cccc43)CC2)ccc1C` [Example 253, Cis-4-{4-[(2-acetamidoethyl)carbamoyl]-2-oxo-2,3-dihydro-1H-1,3-benzodiazol-1-yl}-N-(3-methoxy-4-methylphenyl)cyclohexane-1-carboxamide], 6.79 nM corresponded to half-maximal inhibition (IC50).

`COc1cccc(NC(=O)[C@H]2CC[C@@H](n3c(=O)[nH]c4c(Br)cccc43)CC2)c1` [Example 165, (Cis)-4-(4-bromo-2-oxo-2,3-dihydro-1H-1,3-benzodiazol-1-yl)-N-(3-methoxyphenyl)cyclohexane-1-carboxamide] returned an IC50 of 1390 nM.

For `COc1cc(NC(=O)[C@H]2CC[C@@H](n3c(=O)[nH]c4c(NC(=O)CN)cccc43)CC2)ccc1C` [Example 255, Cis-4-[4-(2-aminoacetamido)-2-oxo-2,3-dihydro-1H-1,3-benzodiazol-1-yl]-N-(3-methoxy-4-methylphenyl)cyclohexane-1-carboxamide], the IC50 stood at 30.9 nM.

In turn, `COc1ccc(NC(=O)[C@H]2CC[C@@H](n3c(=O)[nH]c4ncccc43)CC2)cc1C` [Example 233, Cis-N-(4-methoxy-3-methylphenyl)-4-{2-oxo-1H,2H,3H-imidazo[4,5-b]pyridin-1-yl}cyclohexane-1-carboxamide] registered an IC50 of 47.6 nM.

Regarding `Cc1ccc(NC(=O)[C@H]2CC[C@@H](n3c(=O)[nH]c4c(Br)cccc43)CC2)c(O)c1` [Example 222, Cis-4-(4-bromo-2-oxo-2,3-dihydro-1H-1,3-benzodiazol-1-yl)-N-(2-hydroxy-4-methylphenyl)cyclohexane-1-carboxamide], 350 nM corresponded to half-maximal inhibition (IC50).

In the case of `Cn1cc(NC(=O)[C@H]2CC[C@@H](n3c(=O)[nH]c4c(Br)cccc43)CC2)cn1` [Example 170, (Cis)-4-(4-bromo-2-oxo-2,3-dihydro-1H-1,3-benzodiazol-1-yl)-N-(1-methyl-1H-pyrazol-4-yl)cyclohexane-1-carboxamide], the midpoint of inhibition, the IC50, lay at 8800 nM.

`COc1cc(NC(=O)[C@H]2CC[C@@H](n3c(=O)[nH]c4c(N5Cc6cn[nH]c6C5)cccc43)CC2)ccc1C` [Example 314, Cis-N-(3-methoxy-4-methylphenyl)-4-(2-oxo-4-{1H,4H,5H,6H-pyrrolo[3,4-c]pyrazol-5-yl}-2,3-dihydro-1H-1,3-benzodiazol-1-yl)cyclohexane-1-carboxamide] returned an IC50 of 56.3 nM.

In turn, `CCN(CC)C(=O)c1cnn(-c2cccc3c2[nH]c(=O)n3C2CCN(C(=O)Nc3ccc(I)cc3)CC2)c1` [Example 88, 4-{4-[4-(Diethylcarbamoyl)-1H-pyrazol-1-yl]-2-oxo-2,3-dihydro-1H-1,3-benzodiazol-1-yl}-N-(4-iodophenyl)piperidine-1-carboxamide] showed a concentration for half-maximal inhibition (IC50) of 1760 nM.
